The conditions of series [1]: cited from earlier work; for Reported pK values: values below 2 refer to release of a single carboxy anion; for ionization rate: in aqueous solution.
A further series deals with male genitals. The experiment in a line: Irritation test on male genitals / urethra. Particulars: in vivo. The protocol: In all examples, the test subjects were a monogamous married couple, free of genital herpes and all other known sexually transmitted viruses.
The mixture of zinc acetate in K-Y Lubricating Jelly was tested on the male genitals, passively at first and then with active rubbing.
About 0.5 grams were dissolved in several drops of distilled water and tested on the forearm and genitals.

The test system of series [2] is genitals (both persons, during intercourse). The experiment in a line: Irritation test of lubricant during intercourse / human volunteers. The note with it: human, in vivo. The series is classed as in vivo. From the text:
Subsequently, the gel formulation was applied topically and used as a sexual lubricant during intercourse. Both people wiped off the excess with a tissue after intercourse, but neither person showered or washed off the lubricant until the following day. It caused no irritation to either person.

The next series relates to forearm. The experiment in a line: Irritation test on forearm / skin. The note with it: in vivo. The series is classed as in vivo, human. The protocol:
Zinc acetate was purchased from Pfaltz and Bauer (Waterbury, Connecticut). About 0.5 grams were mixed with several drops of distilled water at room temperature. […] The aqueous mixture was rubbed into an area about 3 cm in diameter on the forearm of […] and caused no irritation. Subsequently, about 0.5 grams of the salt were dissolved in a few drops of distilled water, then 10 ml K-Y Lubricating Jelly (sold by Johnson and Johnson, New Brunswick, N.J.) was added to form a gel mixture containing about 5% zinc acetate (w/v). This commercially available mixture contains purified water, hydroxyethyl-cellulose as a thickening agent, glycerin as a lubricant, glucono-delta-lactate to prevent crystallization, chlorhexidine gluconate as a preservative, and sodium hydroxide to reduce the acidity.

The next series has as its system vagina. Description: Irritation test in shallow region of the vagina (volunteer). The series is classed as in vivo, human. Particulars: human, in vivo.
For series [3], the system named is herpes simplex virus (HSV). Description: Herpes simplex virus plaque assay on CV-1 cells. The note with it: in vitro tests.
Method: The first step of this assay models what happens inside the vaginal cavity. In this part of the assay, the candidate anti-viral agent (such as a zinc salt) was mixed and incubated for a relatively brief period with HIV particles. […] In subsequent tests using herpes viruses (which are much easier to work with than HIV), a range of first-stage incubation times were tested, ranging from 2 hours to only 5 minutes.
Susceptible lymphocyte cells were then added to this mixture, and a second incubation step was carried out for a number of days (20 days or more, when HIV was tested; 3 days, when herpes viruses were tested in plaque assays) to determine whether zinc-treated or untreated viruses would infect the lymphocytes.
After those toxicity tests had been evaluated, the viral inhibition tests were done on CV-1 cells, an immortalized cell line originally from a monkey kidney, which is highly and reliably susceptible to herpes virus infection, and which is widely used in in vitro tests on herpes viruses.
Tests were also carried out using a range of zinc salt concentrations, from 50 mM down to 5 mM, using constant 2 hour incubation periods.
A short description of series [4]: Acidity tests: pH of 5% w/v zinc salt solutions. Particulars: for pH of solution (rounded) / pH of solution: 5% w/v in distilled deionized water; for pH of solution: 0.05 subtracted from meter reading, approximately accurate.
For a further series, the system named is H-9 lymphocytes. Description: Toxicity to lymphocytes. Particulars: at the concentrations of interest. The series is classed as cell-based. Here is the method: In a first set of tests, 20 mg of zinc acetate powder (ZnAc, MW 183.4) was mixed in 1 ml RPMI cell culture medium (Whittaker Corp.). This 2% (w/v) salt mixture contained 7 mg/ml elemental Zn. […] Therefore, a small quantity of HCl was added until the mixture became clear; the pH was about 5.5. The Zn concentration was reduced by half (and the pH was raised somewhat) when an equal volume (1 ml) of cell-free high-titer HIV-1 viral stock was added. The zinc/virus mixture was stirred and incubated for 2 hours at 37° C. (i.e., normal body temperature).
Following this first incubation step, the zinc/virus mixtures were diluted at 1:10, 1:30, and 1:100 ratios using culture medium, and aliquots were added to equal volumes of culture media containing H-9 lymphocytes that had been pretreated overnight with 2 μg/ml Polybreen. The lymphocyte mixtures were incubated for three hours at 37° C.; zinc concentrations during this step were 180, 60, and 18 μg/ml for the 1:10, 1:30, and 1:100 dilutions.
A 2 ml aliquot from each dilution was mixed with an equal volume of 3% ZnAc dissolved in sterile distilled water; after mixing, the zinc concentration was 5.3 mg/ml Zn. These mixtures were incubated for 2 hours, then diluted with culture medium at 1:30, 1:100, and 1:1000 to reduce the toxicity of the zinc to lymphocytes. Four ml of lymphocytes were mixed with 4 ml of each zinc/virus mixture. The zinc/virus/cell mixtures were incubated at 37° C. for 3 hours; zinc concentrations were 88, 27, and 2.7 μg/ml in the 30, 100, and 1000 dilutions.

Another series relates to sperm cells. Particulars: undiluted semen; Eliasson 1971, Paz et al 1977; cited from earlier work.
Series [5] deals with genitals (both persons, during intercourse). Particulars: cited from earlier work.

Read-outs that look alike come from different tables or passages of the source.

The text below walks through data of patent publication US6321750A, “Condom lubricants with zinc salts as anti-viral additives” (priority 1999, dated 2001).

Turning to `CCC(=O)[O-].CCC(=O)[O-].[Zn+2]` [Zinc propionate], the “Reported pK values” in series [1] (in water) is listed as 1.01. Moreover, in the series on male genitals, the “irritation, male genital skin” value is on record as “no irritation”; the “irritation, male genitals” value was “did not cause any irritation”; the “irritation, urethra” value is on record as “substantial irritation”. For the same compound, the “irritation of gel / genital lubricant formulations” value in series [2] is “did not cause any irritation”. In the series on forearm, the “burning and irritation to the skin” value was “substantial amount of burning and irritation to the skin”; the “irritation, forearm” value was “no irritation”. Also, in the series with vagina, the “irritation, vagina” value was “vaginal irritation” and the “irritation, vagina / female genitals” value is “no irritation”.
Take `O=C[O-].O=C[O-].[Zn+2]` [Zinc formate]: in [1] (in water), the “Reported pK values: pK1” value was 0.6 and the “Reported pK values: pK2” value was 0.95.
Turning to Zinc gluconate, the “Reported pK values” in series [1] (in water) is 1.70. The “irritation, male genitals” value in the series on male genitals was “no irritation”. Further, the abrasion during intercourse entry in series [2] was “no abrasion was noticeable”. For the same compound, the “irritation, forearm” value in the series on forearm is listed as “no irritation”. In the series with several cell lines, the MCC is ~200 mM. Further, in [3], the “anti-viral effect against herpes viruses” value is “clearly effective in preventing infection by herpes viruses”. The “irritation, vagina / female genitals” value with vagina is on record as “no irritation”.
On to `CC(O)C(=O)[O-].CC(O)C(=O)[O-].[Zn+2]` (stereo not shown) [Zinc lactate], for which the “Reported pK values” in series [1] (in water) is given as 1.86. For the same compound, the irritation during intercourse result in series [2] is “no irritation of any sort”. Further, the MCC in the series on several cell lines was ~200 mM. In [4], the “pH of solution (rounded)” value is reported as “about 6.2” and the pH of solution is reported as 6.16.
Take `[Cl-].[Cl-].[Zn+2]` [Zinc chloride]: the ionization rate in series [1] is on record as ~100%. In series [2], the “irritation in initial tests” value was “significant irritation”. For the same compound, the “burning, forearm” value in the series on forearm is given as “immediately caused a burning sensation”.
Turning to Zinc butyrate, the “Reported pK values” in series [1] (in water) is 1.00.
On to `[Zn+2]` [zinc], for which the toxicity to lymphocytes result with H-9 lymphocytes is “toxic to lymphocytes”. Also, the “effect on physical irritation caused by nonoxynol” value in series [2] was “can actually reduce the physical irritation that is caused by nonoxynol”. In the series with sperm cells, the “effect on sperm respiratory activity and motility” value was “suppresses the respiratory activity and motility of sperm cells”.
Take octoxynol: in [5] (human, in vivo), the “irritation (prior art / known)” value was “cause irritation in many users”.
For the compound `O=C(O)CO.O=C(O)CO.[Zn]` [Zinc glycolate], the “Reported pK values” in [1] (in water) is on record as 1.92.
Regarding Zinc glycerate, in series [1] (in water), the “Reported pK values” is recorded as 1.80.
Consider nonoxynol, for which the “irritation (prior art / known)” value in [5] (literature or general knowledge) is recorded as “cause irritation in many users”.
As for `O=S(=O)([O-])[O-].[Zn+2]` [Zinc sulfate], in [1], the ionization rate was ~100%. Also, in the series on male genitals, the “irritation, male genital skin” value is “did not cause any irritation” and the “irritation, urethra” value is listed as “did not cause any irritation”. Moreover, in [2], the “irritation in initial tests” value is recorded as “significant irritation” and the “irritation, human volunteers” value was “no noticeable irritation”. Also, in the series on forearm, the “irritation, forearm” value is “did not cause any irritation”. Moreover, the “irritation, person, passive test” value in the series on vagina is on record as “tingling, burning sensation”. The “acidity relative to zinc acetate or lactate solution” value in series [4] (5% solutions) was “about 4 times”. In addition, the “pH drop relative to zinc acetate or lactate solution” value in [4] (5% solutions, from 6.2 to 5.6) is listed as 0.6. In series [4], the “pH of solution (rounded)” value is reported as “about 5.6” and the pH of solution turned out to be 5.58. In series [5] (human, in vivo), the “irritation (prior art / known)” value is “substantial burning and irritation in most people”.
